According to patent publication US20110015226A1, “Treatment of Energy Utilization Disease” (SUMMIT CORPORATION PLC, priority 2008, published 2011):

Legend:
zebrafish larvae = experiment: Acute Toxicity assay in zebrafish larvae; format: in vivo; conditions: 1 mM, 5 mM, 25 mM, 50 mM, 100 mM, 200 mM, 500 mM aqueous dose, 72-96 hpf
Method: The compound of formula (G2) was screened for toxicity liabilities using a validated Acute Toxicity assay. Fertilized eggs were obtained from breeding pairs of adult Tuebingen (Tu) zebrafish and arrayed at the 2-4 cell stage of development into 24-well culture plates containing fresh 0.3× Danieau's solution. Plates were incubated at 28.5° C. in a humidity controlled environment prior to assessment. Stock concentrations of Compound were produced by serial dilution in 100% DMSO (final concentration exposed to larvae, 0.5%). Screening was performed at seven doses (1, 5, 25, 50, 100, 200 and 500 mM) alongside VASTox internal controls and vehicle. Dosing of Compound took place at 72 h post fertilisation (hpf; at which point embryogenesis is complete) with visual assessment of lethality and gross morphology at 96 hpf (24 h incubation). […] were exposed to each dose of Compound giving a total of […] assessed (excluding controls). At 96 hpf, larvae were observed and screened using a dissecting stereomicroscope for the presence or absence of: (1) heartbeat (2) circulation; (3) necrosis; and (4) motility (touch response). If all four criteria were satisfied, a larva would be classified as dead. The compound was screened blind.

[1] = target: T1, rat intestinal isomaltase (Rattus norvegicus, UniProt P23739); experiment: Rat intestinal glycosidases: isomaltase; format: biochemical; conditions: rat intestinal brush border membranes
T1 construct: Enzyme activities were prepared from brush border membranes of rat small intestine; from tissue; host or cells: rat small intestine brush border membranes
T1 sequence (P23739 whole entry): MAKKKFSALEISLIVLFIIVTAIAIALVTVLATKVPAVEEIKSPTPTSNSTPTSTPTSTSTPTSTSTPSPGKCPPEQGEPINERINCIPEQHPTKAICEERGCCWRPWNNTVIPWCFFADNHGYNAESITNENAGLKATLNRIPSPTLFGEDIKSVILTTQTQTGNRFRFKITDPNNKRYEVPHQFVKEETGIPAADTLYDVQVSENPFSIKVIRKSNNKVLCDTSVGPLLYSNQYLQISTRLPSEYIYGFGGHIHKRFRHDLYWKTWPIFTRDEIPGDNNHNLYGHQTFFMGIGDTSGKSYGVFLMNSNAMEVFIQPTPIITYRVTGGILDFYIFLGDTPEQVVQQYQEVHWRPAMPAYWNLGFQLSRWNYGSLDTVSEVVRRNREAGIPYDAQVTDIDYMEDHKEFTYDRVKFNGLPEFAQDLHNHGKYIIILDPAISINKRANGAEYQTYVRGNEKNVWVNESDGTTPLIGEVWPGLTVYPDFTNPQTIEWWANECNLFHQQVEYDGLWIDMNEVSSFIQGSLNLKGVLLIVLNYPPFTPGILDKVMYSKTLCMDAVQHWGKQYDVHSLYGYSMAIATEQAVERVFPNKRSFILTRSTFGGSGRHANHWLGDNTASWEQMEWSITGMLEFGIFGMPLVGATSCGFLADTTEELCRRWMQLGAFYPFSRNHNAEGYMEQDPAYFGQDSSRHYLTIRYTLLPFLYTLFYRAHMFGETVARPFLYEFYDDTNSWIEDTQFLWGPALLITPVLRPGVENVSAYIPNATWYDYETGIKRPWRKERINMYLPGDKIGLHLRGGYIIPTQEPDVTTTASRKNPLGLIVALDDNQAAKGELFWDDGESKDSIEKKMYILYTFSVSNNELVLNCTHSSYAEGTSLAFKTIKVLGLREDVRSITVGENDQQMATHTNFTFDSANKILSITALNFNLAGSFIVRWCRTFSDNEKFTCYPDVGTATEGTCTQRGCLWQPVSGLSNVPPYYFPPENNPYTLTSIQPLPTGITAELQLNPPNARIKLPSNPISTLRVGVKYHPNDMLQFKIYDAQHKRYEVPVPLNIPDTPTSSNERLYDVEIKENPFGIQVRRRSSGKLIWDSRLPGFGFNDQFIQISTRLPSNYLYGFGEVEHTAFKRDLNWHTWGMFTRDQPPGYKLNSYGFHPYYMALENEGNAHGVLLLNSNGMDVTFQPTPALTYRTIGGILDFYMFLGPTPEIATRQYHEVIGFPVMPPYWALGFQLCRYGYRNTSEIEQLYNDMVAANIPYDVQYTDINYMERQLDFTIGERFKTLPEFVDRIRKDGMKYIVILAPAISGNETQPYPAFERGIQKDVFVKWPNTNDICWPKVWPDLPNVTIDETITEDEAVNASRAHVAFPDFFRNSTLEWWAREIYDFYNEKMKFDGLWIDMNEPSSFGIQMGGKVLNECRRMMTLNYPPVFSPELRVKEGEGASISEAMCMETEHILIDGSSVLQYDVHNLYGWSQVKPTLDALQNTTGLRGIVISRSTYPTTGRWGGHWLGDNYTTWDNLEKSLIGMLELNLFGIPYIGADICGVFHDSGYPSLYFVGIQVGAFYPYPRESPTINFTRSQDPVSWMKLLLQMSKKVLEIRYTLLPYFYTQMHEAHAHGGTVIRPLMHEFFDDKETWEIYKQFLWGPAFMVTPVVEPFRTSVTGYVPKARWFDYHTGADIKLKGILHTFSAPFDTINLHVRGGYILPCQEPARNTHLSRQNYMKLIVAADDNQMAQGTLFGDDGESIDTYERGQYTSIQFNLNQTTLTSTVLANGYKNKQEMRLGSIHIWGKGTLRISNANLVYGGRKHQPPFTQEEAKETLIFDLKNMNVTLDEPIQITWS
Method: (§1) Enzyme activities were prepared from brush border membranes of rat small intestine using disaccharides as substrates as described by Yasuda et al., 2002.

Storage stability = format: physicochemical; conditions: all normal laboratory storage conditions
rat intestinal trehalase = rat intestinal trehalase (Rattus norvegicus, UniProt G3V7Q9); experiment: Rat intestinal glycosidases: trehalase; format: biochemical; conditions: rat intestinal brush border membranes
Chain of rat intestinal trehalase (G3V7Q9 21-553): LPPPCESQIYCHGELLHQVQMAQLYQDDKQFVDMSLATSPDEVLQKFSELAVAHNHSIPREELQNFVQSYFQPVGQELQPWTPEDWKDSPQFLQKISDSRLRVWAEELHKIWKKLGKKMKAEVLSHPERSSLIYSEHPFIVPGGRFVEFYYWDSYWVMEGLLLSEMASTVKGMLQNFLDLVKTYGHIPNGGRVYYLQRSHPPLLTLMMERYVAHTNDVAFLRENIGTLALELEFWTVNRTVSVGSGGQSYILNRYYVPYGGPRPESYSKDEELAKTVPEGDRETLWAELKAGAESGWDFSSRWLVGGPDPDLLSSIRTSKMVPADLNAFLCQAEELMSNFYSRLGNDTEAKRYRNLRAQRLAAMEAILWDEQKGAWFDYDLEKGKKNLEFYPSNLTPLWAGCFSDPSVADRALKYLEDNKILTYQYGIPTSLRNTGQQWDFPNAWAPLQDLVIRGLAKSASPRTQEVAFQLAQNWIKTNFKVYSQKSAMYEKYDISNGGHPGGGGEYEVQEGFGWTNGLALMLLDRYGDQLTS
Method: as §1

[2] = Uptake of G2 after oral Gymnema water extract, urine monitoring; format: in vivo, human; conditions: one volunteer
Method: In a preliminary experiment on one volunteer to determine if G2 was readily absorbed from the gastrointestinal tract, a water extract of Gymnema leaves obtained commercially containing 7 mg of G2 was drunk and urine monitored for G2 over 4 hours (0-2 hours and 2-4 hours). An internal standard of 1 mg of castanospermine was added to the two samples of urine prior to applying to a cation exchange resin (IR120 in the H^+ form). After washing the resin with copious water, the bound material was displaced wing excess 2M NH4^+ solution and dried for GC-MS analysis. The samples were derivatised using Pierce Tri-Sil to produce trimethyl-silyl-derivatives of the imino sugars and imino sugar acids. GC-MS was carried out on a Perkin Elmer TurboMass Gold mass spectrometer, with a quadrupole ion filter system, which was run at 250° C. constantly during analysis. The detector mass range was set to 100 to 650 amu. The temperature of the transfer line (GC to MS) was held at 250° C. The GC column was a […] fused-silica column (Varian ‘Factor Four’ VF-5 ms column, 25 m×0.25 mm i.d., 0.25 μm phase thickness). The carrier gas (helium) flow rate was 1 ml min-1. G2 gives a characteristic mass spectrum as the tms derivative and was well resolved allowing quantification.

iduronidase = iduronidase (Homo sapiens, UniProt P35475); conditions: Booth et al. (2007) and references therein; cited from earlier work
Chain of iduronidase (P35475 28-653): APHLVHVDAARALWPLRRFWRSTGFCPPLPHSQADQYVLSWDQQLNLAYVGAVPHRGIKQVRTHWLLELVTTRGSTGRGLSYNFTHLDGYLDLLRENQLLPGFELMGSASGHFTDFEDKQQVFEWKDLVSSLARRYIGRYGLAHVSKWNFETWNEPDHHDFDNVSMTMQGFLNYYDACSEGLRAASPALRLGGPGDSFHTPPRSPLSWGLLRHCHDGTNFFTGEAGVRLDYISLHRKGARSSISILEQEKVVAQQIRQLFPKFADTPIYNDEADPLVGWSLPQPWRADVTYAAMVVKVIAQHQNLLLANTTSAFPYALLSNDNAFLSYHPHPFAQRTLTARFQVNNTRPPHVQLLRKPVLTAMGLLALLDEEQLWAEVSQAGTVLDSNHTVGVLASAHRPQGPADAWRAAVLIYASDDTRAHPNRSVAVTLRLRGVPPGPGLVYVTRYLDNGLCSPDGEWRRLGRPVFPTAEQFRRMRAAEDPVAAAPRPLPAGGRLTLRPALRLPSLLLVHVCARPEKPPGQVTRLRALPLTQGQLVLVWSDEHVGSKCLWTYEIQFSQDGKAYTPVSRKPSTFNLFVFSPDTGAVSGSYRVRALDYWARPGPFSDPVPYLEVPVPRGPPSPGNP

rat intestinal sucrase = target: T2, rat intestinal sucrase (Rattus norvegicus, UniProt P23739); experiment: Rat intestinal glycosidases: sucrase; format: biochemical; conditions: rat intestinal brush border membranes
T2 construct: Enzyme activities were prepared from brush border membranes of rat small intestine; from tissue; host or cells: rat small intestine brush border membranes
T2 sequence (P23739 whole entry): as the sequence (P23739 whole entry) above
Method: as §1

[3] = tested on: β-D-mannosidase Cellullomonas fimi; experiment: Glycosidase inhibition: β-D-mannosidase Cellullomonas fimi; format: biochemical; conditions: compounds tested at 0.8 mM
Method: All enzymes and para-nitrophenyl substrates were purchased from Sigma, with the exception of beta-mannosidase which came from Megazyme. Enzymes were assayed at 27° C. in 0.1M citric acid/0.2M disodium hydrogen phosphate buffers at the optimum pH for the enzyme. The incubation mixture consisted of 10 μl enzyme solution, 10 μl of 1 mg/ml aqueous solution of extract and 50 μl of the appropriate 5 mM para-nitrophenyl substrate made up in buffer at the optimum pH for the enzyme. The reactions were stopped by addition of 70 μl 0.4M glycine (pH 10.4) during the exponential phase of the reaction, which had been determined at the beginning using uninhibited assays in which water replaced inhibitor. Final absorbances were read at 405 nm using a Versamax microplate reader (Molecular Devices). Assays were carried out in triplicate, and the values given are means of the three replicates per assay. (See Watson, A. A., Nash, R. J., Wormald, M. R., Harvey, D. J., Dealler, S., Lees, E., Asano, N., Kizu, H., Kato, A., Griffiths, R. C., Cairns, A. J. and Fleet, G. W. J. (1997). Glycosidase-inhibiting pyrrolidine alkaloids from Hyacinthoides non-scripta. Phytochemistry 46 (2): 255-259.)

O=C(O)[C@H]1NC[C@H](O)[C@@H](O)[C@@H]1O [Compound G2, 2S,3R,4R,5S-trihydroxypiperidine-2-carboxylic acid]
acute toxicity to zebrafish larvae (zebrafish larvae): did not cause acute toxicity | IC50 [1]: > 1000 µM | stability (Storage stability): stable | IC50 (rat intestinal trehalase): > 1000 µM | G2 recovered in urine ([2]; oral water extract containing 7 mg of G2, within four hours): ~7 mg | G2 in urine ([2]; oral water extract of Gymnema leaves containing 7 mg of G2, urine 0-2 hours and 2-4 hours): detected | inhibition of iduronidase (iduronidase): weak inhibitor | IC50 (rat intestinal sucrase): > 1000 µM | % inhibition, β-D-mannosidase Cellullomonas fimi [3]: NI (NI = no inhibition)
